{
  "source": "patent US20100184955A1",
  "about": "“ANTICANCER PRODRUG SENSITIVE TO TARGET PROTEASE” (priority 2009, published 2010)",
  "tested_on": "HeLa cells",
  "test": "MTT cytotoxicity test in HeLa cells",
  "assay_type": "cell-based",
  "settings": "different concentrations, FIG. 4",
  "description": "Each of Dox and albumin-peptide-Dox at different concentrations was added to HeLa cells and then a 3-(4,5-dimethylthiazol-2-yl)-2,5-diphenyltetrazolium bromide (MTT) assay was performed to evaluate cytotoxicity.",
  "data": [
    {"smiles": "COc1cccc2c1C(=O)c1c(O)c3c(c(O)c1C2=O)C[C@@](O)(C(=O)CO)C[C@@H]3O[C@H]1C[C@H](N)[C@H](O)[C@H](C)O1", "note": "[Dox, doxorubicin]", "values": [
      {"measurement": "cytotoxicity (MTT assay)", "result": "the level of cytotoxicity was increased in proportion to the concentration"}
    ]}
  ]
}
